Where a SMILES comes first, the peptide text is derived from it.
Legend:
GluN1a–GluN2A = format: cell-based
[1] = system: NMDA-evoked currents in cultured rat embryonic hippocampal neurons (NMDAr); conditions: for IC50: pH 7.4
GluN1a–GluN2B = format: cell-based
[2] = system: recombinant NMDAr comprised of either GluN1a–GluN2A or GluN1a–GluN2B subunits; format: cell-based

SMILES | block of NMDA-evoked currents, GluN1a–GluN2A (GluN1a–GluN2A) [%] | dose dependence of inhibition [1] | off rate (from transient current increase on simultaneous removal of NMDA + peptide) [1] | reversibility of block [1] | use-dependence of block [1] | IC50 [1] [µM] | block of NMDA-evoked currents, GluN1a–GluN2B (GluN1a–GluN2B) [%] | difference between control-NMDA and wash-NMDA (reversibility) [2] | off rate (from short-lived current increase on simultaneous removal of NMDA + peptide) [2] | reversibility, recombinant NMDAr versus neuronal NMDAr [2]
CC[C@H](C)[C@H](NC(=O)[C@H](CC(C)C)NC(=O)[C@H](CC(=O)O)NC(=O)[C@H](CCC(N)=O)NC(=O)[C@H](CC(N)=O)NC(=O)[C@H](CC(=O)O)NC(=O)[C@H](CCC(N)=O)NC(=O)[C@H](CC(C)C)NC(=O)[C@H](CC(=O)O)NC(=O)[C@H](CC(=O)O)NC(=O)[C@H](CCC(=O)O)NC(=O)CN)C(=O)N[C@@H](CCCNC(=N)N)C(=O)N[C@@H](CC(=O)O)C(=O)N[C@@H](CCCCN)C(=O)N[C@@H](CO)C(=O)N[C@@H](CC(N)=O)C(=O)O [EAR16] (H-GEDDLQDNQDLIRDKSN-OH) | 50 | dose-dependent | fast enough that would allow binding of NMDA early on during washout | highly reversible | no clear use-dependence | 241 | 84 | No significant difference | fast enough that would allow binding of NMDA early on during washout | faster from the recombinant NMDAr than from NMDAr expressed in neuronal cells
CC[C@H](C)[C@H](NC(=O)[C@H](CC(C)C)NC(=O)[C@H](CC(=O)O)NC(=O)[C@H](CCC(N)=O)NC(=O)[C@H](C)NC(=O)[C@H](CC(=O)O)NC(=O)[C@H](CCC(N)=O)NC(=O)[C@H](Cc1ccc(O)cc1)NC(=O)[C@H](CC(=O)O)NC(=O)[C@H](CC(=O)O)NC(=O)[C@H](CCC(=O)O)NC(=O)CN)C(=O)N[C@@H](CCCNC(=N)N)C(=O)N[C@@H](CC(=O)O)C(=O)N[C@@H](CCCCN)C(=O)N[C@@H](CO)C(=O)N[C@@H](CC(N)=O)C(=O)O [EAR18] (H-GEDDYQDAQDLIRDKSN-OH) |  |  |  |  |  | 176 |  |  |  | 
